# pKi: −log10 of the molar value. Counter-ions that a name gives are not always drawn.
# Target: T1, human 5-HT6 receptor (Homo sapiens, UniProt P50406)
# T1 construct: host or cells: CHO-K1 cells, stably transfected; membranes prepared in house
# Assay: Human 5-HT6 Receptor Binding Assay ([3H]LSD displacement, scintillation beads)
# Conditions: membranes of CHO-K1 cells with recombinant human 5-HT6, 4 nM [3H]LSD; Table 1, class symbols; read-out: h5-HT6 (Ki)
# T1 sequence (P50406 whole entry): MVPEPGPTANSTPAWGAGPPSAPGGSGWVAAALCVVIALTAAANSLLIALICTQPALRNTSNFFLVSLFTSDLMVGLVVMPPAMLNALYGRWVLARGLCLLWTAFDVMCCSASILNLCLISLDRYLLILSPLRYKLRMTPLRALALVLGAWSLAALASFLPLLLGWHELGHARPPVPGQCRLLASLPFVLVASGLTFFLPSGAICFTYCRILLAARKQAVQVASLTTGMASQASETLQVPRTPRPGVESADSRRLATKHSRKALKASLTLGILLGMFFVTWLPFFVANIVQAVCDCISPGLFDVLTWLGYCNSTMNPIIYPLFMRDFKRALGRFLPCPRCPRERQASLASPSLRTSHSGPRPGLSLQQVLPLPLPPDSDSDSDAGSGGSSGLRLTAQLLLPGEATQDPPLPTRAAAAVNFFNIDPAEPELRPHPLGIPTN
row,Compound,pKi
1,O=S(=O)(c1ccc2c(c1)OC1CNCCC21)c1ccc(Cl)c(C(F)(F)F)c1 (stereo not shown) [Example 148],> 6.30
2,O=S(=O)(c1ccc2c(c1)OCCO2)c1cccc2c1OC1CNCCC21 (stereo not shown) [Example 185],> 6.30
3,O=S(=O)(c1ccc2c(c1)C1CCNCC1O2)c1cccc(Cl)c1Cl (stereo not shown) [Example 176],> 6.30
4,O=S(=O)(c1ccc2oc3c(c2c1)CCNC3)c1cccc2cccnc12 [Example 354],> 6.30
5,CC1NCCc2c1oc1ccc(S(=O)(=O)c3cccc(C(F)(F)F)c3)cc21 (stereo not shown) [Example 282],> 6.30
6,O=S(=O)(c1ccc(Cl)c(C(F)(F)F)c1)c1ccc2oc3c(c2c1)CCNC3 [Example 257],> 6.30
7,"CCC1(C)NCCc2c1oc1cc(S(=O)(=O)c3cccc(F)c3)ccc21 (racemic) [Example 27, 1-ethyl-7-[(3-fluorophenyl)sulfonyl]-1-methyl-1,2,3,4-tetrahydro[1]benzofuro[2,3-c]pyridine]",> 6.30
8,"O=S(=O)(c1ccccc1)c1ccc2c(c1)C1CCNCC1O2 (stereo not shown) [Example 181, 6-(phenylsulfonyl)-1,2,3,4,4a,9a-hexahydro[1]benzofuro[2,3-c]pyridine]",< 6.00
9,"CC(C)Oc1cccc(S(=O)(=O)c2ccc3c4c(oc3c2)C2(CCCOC2)NCC4)c1 (racemic) [Example 23, 7-{[3-(propan-2-yloxy)phenyl]sulfonyl}-3,4,5′,6′-tetrahydro-2H,4′H-spiro[1-benzofuro[2,3-c]pyridine-1,3′-pyran]]",> 6.30
10,O=S(=O)(c1cc[n+]([O-])cc1)c1ccc2oc3c(c2c1)CCNC3 [Example 351],< 6.00
11,"CN(C)C(=O)CC1(C)NCCc2c1oc1cc(S(=O)(=O)c3cccc(F)c3)ccc21 (single isomer, unassigned) [Example 51, 2-{7-[(3-fluorophenyl)sulfonyl]-1-methyl-1,2,3,4-tetrahydro[1]benzofuro[2,3-c]pyridin-1-yl}-N,N-dimethylacetamide]",> 6.30
12,"CC1(C)NCCc2c1oc1cc(S(=O)(=O)c3cccc(F)c3)ccc21 [Example 1, 7-[(3-Fluorophenyl)sulfonyl]-1,1-dimethyl-1,2,3,4-tetrahydro[1]benzofuro[2,3-c]pyridine]",> 6.30
13,O=S(=O)(c1ccc2c3c(oc2c1)CNCC3)c1ccccc1F [Example 231],> 6.30
14,O=S(=O)(c1cccc(C(F)(F)F)c1)c1ccc2c(c1)OC1CNCCC21 (stereo not shown) [Example 126],> 6.30
15,[O-][S+](c1ccc2c(c1)OC1CNCCC21)c1cc(F)cc(F)c1F (stereo not shown) [Example 385],< 6.00
16,O=S(=O)(c1cccc2c1OC1CNCCC21)c1cccc2ccccc12 (stereo not shown) [Example 184],> 6.30

row,Compound,pKi
1,O=S(=O)(c1cccc(C(F)(F)F)c1)c1ccc2c3c(oc2c1)CNCC3 [Example 192],> 6.30
2,Cc1noc(C)c1S(=O)(=O)Oc1ccc2c(c1)C1CCNCC1O2 (stereo not shown) [Example 703],< 6.00
3,"O=S(=O)(c1cccc(F)c1)c1ccc2c3c(oc2c1)C1(CCCC1)NCC3 [Example 28, 7-[(3-fluorophenyl)sulfonyl]-3,4-dihydro-2H-spiro[1-benzofuro[2,3-c]pyridine-1,1′-cyclopentane]]",> 6.30
4,"CC1(C)NCCc2c1oc1cc(S(=O)(=O)c3ccc(F)c(Cl)c3)ccc21 [Example 18, 7-[(3-chloro-4-fluorophenyl)sulfonyl]-1,1-dimethyl-1,2,3,4-tetrahydro[1]benzofuro[2,3-c]pyridine]",> 6.30
5,O=[N+]([O-])c1ccc(S(=O)(=O)c2ccc3c(c2)OC2CNCCC32)cc1 (stereo not shown) [Example 124],< 6.00
6,Cc1c(Cl)cccc1S(=O)(=O)Oc1ccc2c(c1)C1(C)CCNCC1O2 (stereo not shown) [Example 767],< 6.00
7,COc1cccc(S(=O)(=O)c2ccc3c(c2)C2CCNCC2O3)c1 (stereo not shown) [Example 178],> 6.30
8,CC12CCNCC1Oc1ccc(OS(=O)(=O)c3ccc(Cl)cc3)cc12 (stereo not shown) [Example 757],< 6.00
9,"O=S(=O)(c1ccc2c3c(oc2c1)CNCC3)c1cccc(Cl)c1Cl [Example 196, 7-[(2,3-dichlorophenyl)sulfonyl]-1,2,3,4-tetrahydro[1]benzofuro[2,3-c]pyridine]",> 6.30
10,O=S(=O)(c1cc(F)cc(F)c1)c1ccc2c3c(oc2c1)C1(CCOC1)NCC3 (stereo not shown) [Example 302],> 6.30
11,O=S(=O)(c1ccc2c3c(oc2c1)CNCC3)C1CCCCC1 [Example 233],< 6.00
12,COC(=O)c1cccc(S(=O)(=O)c2ccc3c4c(oc3c2)CNCC4)c1 [Example 219],> 6.30
13,COc1ccc(S(=O)(=O)c2ccc3c(c2)OC2CNCCC32)cc1 (stereo not shown) [Example 325],6.00 to 6.30
14,"O=S(=O)(c1cccc(OC(F)(F)F)c1)c1ccc2c(c1)OC1CNCCC21 (stereo not shown) [Example 149, 7-{[3-(trifluoromethoxy)phenyl]sulfo-nyl}-1,2,3,4,4a,9a-hexahydro[1]benzofuro[2,3-c]pyridine]",> 6.30
15,"O=S(=O)(c1ccccc1)c1ccc2c3c([nH]c2c1)C1(CCOC1)NCC3 (stereo not drawn) [Example 546, 7-(Phenylsulfonyl)-2,3,4,4′,5′,9-hexahydrospiro[beta-carboline-1,3′-furan]trifluoroacetate]",> 6.30

# The next lines start with the values.
row,pKi,Compound
1,> 6.30,Cc1ccc(C)c(S(=O)(=O)Oc2ccc3c(c2)OC2CNCCC32)c1 (stereo not shown) [Example 647]
2,> 6.30,COCC1(C)NCCc2c1oc1cc(S(=O)(=O)c3cccc(F)c3)ccc21 (stereo not shown) [Example 634]
3,6.00 to 6.30,O=S(=O)(Oc1ccc2c(c1)C1CCNCC1O2)c1ccc(-n2cccn2)cc1 (stereo not shown) [Example 733]
4,> 6.30,Cc1ccc(S(=O)(=O)Oc2ccc3c(c2)OC2CNCCC32)cc1C (stereo not shown) [Example 649]
5,< 6.00,O=S(=O)(Nc1ccc(F)cc1)c1ccc2c(c1)C1CCNCC1O2 (stereo not shown) [Example 847]
6,> 6.30,Cc1cc(C)cc(S(=O)(=O)Oc2ccc3c(c2)OC2CNCCC32)c1 (stereo not shown) [Example 648]
7,6.00 to 6.30,COc1ccc(S(=O)(=O)Oc2ccc3c(c2)C2CCNCC2O3)cc1OC (stereo not shown) [Example 732]
8,> 6.30,CC1(C)NCCc2c1oc1cc(S(=O)(=O)c3cccc4c3OC(F)(F)O4)ccc21 [Example 465]
9,> 6.30,O=S(=O)(Oc1ccc2c(c1)C1CCNCC1O2)c1cc2ccccc2o1 (stereo not shown) [Example 713]
10,> 6.30,O=S(=O)(c1cccc(F)c1)c1ccc2oc3c(c2c1)CCNC3C1CCOCC1 (stereo not shown) [Example 520]
11,< 6.00,O=S(=O)(Cc1ccc(F)cc1F)Oc1ccc2c(c1)C1CCNCC1O2 (stereo not shown) [Example 756]
12,> 6.30,"O=S(=O)(c1cccc(OCC2CCOCC2)c1)c1ccc2c(c1)OC1CNCCC21 (stereo not shown) [Example 570, 7-{[3-(tetrahydro-2H-pyran-4-ylmethoxy)phenyl]sulfonyl}-1,2,3,4,4a,9a-hexahydro[1]benzofuro[2,3-c]pyridine]"
13,> 6.30,O=S(=O)(c1ccccc1)c1ccc2c3c(oc2c1)C(C(F)F)NCC3 (stereo not shown) [Example 523]
14,< 6.00,CC(=O)Nc1ccc(S(=O)(=O)Oc2ccc3c(c2)C2CCNCC2O3)cc1 (stereo not shown) [Example 728]
15,< 6.00,O=S(=O)(c1cccc(F)c1)c1ccc2oc3c(c2c1)CCN1CCCCC31 (stereo not shown) [Example 618]
16,< 6.00,"O=S(=O)(Nc1ccc(Cl)cc1)c1ccc2c(c1)C1CCNCC1O2 (stereo not shown) [Example 836, N-(4-Chlorophenyl)-1,2,3,4,4a,9a-hexahydro[1]benzofuro[2,3-c]pyridine-6-sulfonamide]"
17,> 6.30,Cc1c(OCC2CCOCC2)cccc1S(=O)(=O)c1ccc2c(c1)OC1CNCCC21 (stereo not shown) [Example 582]
18,< 6.00,O=S(=O)(Cc1ccc(C(F)(F)F)cc1)Oc1ccc2c(c1)C1CCNCC1O2 (stereo not shown) [Example 751]

row,pKi,Compound
1,> 6.30,O=S(=O)(c1cc(F)cc(OCc2ccccc2)c1)c1ccc2c(c1)OC1CNCCC21 (stereo not shown) [Example 484]
2,> 6.30,O=S(=O)(c1ccc2c(c1)OC1CNCCC21)c1cccc(F)c1F (stereo not shown) [Example 399]
3,< 6.00,O=S(=O)(Cc1ccccc1)Nc1ccc2c(c1)C1CCNCC1O2 (stereo not shown) [Example 831]
4,> 6.30,O=S(=O)(c1cncc(Cl)c1)c1ccc2c3c(oc2c1)CNCC3 [Example 437]
5,6.00 to 6.30,O=S(=O)(Oc1ccc2c(c1)C1CCNCC1O2)c1ccc(F)c(Cl)c1 (stereo not shown) [Example 723]
6,> 6.30,O=S(=O)(c1cccc(Cl)c1)c1ccc2c3c(oc2c1)C(CC(F)(F)F)NCC3 (stereo not shown) [Example 504]
7,> 6.30,O=S(=O)(c1cccc(OCc2cccnc2)c1)c1ccc2c(c1)OC1CNCCC21 (stereo not shown) [Example 559]
8,< 6.00,Cn1cnc(COc2cccc(S(=O)(=O)c3ccc4c(c3)OC3CNCCC43)c2)n1 (stereo not shown) [Example 560]
9,< 6.00,"O=S(=O)(Cc1ccccc1)Oc1ccc2c(c1)C1CCNCC1O2 (stereo not shown) [Example 697, 1,2,3,4,4a,9a-hexahydro[1]benzofuro[2,3-c]pyridin-6-yl phenylmethanesulfonate]"
10,< 6.00,O=S(=O)(Nc1cc(Cl)cc(Cl)c1)c1ccc2c(c1)C1CCNCC1O2 (stereo not shown) [Example 843]
11,> 6.30,"O=S(=O)(c1cccc(OCC2CCOCC2)c1)c1ccc2c(c1)OC1CNCCC21 (single isomer, unassigned) [Example 548, 7-{[3-(Tetrahydro-2H-pyran-4-ylmethoxy)phenyl]sulfonyl}-1,2,3,4,4a,9a-hexahydro[1]benzofuro[2,3-c]pyridine]"
12,> 6.30,Cc1cc(C)c(S(=O)(=O)Oc2ccc3c(c2)OC2CNCCC32)c(C)c1 (stereo not shown) [Example 656]
13,< 6.00,CCN1CCC2c3ccc(OS(=O)(=O)c4ccc(Cl)cc4)cc3OC2C1 (stereo not shown) [Example 812]
14,6.00 to 6.30,"O=S(=O)(c1ccccc1)c1ccc2c3c(oc2c1)C1(CCCOC1)NCC3 (single isomer, unassigned) [Example 544, 7-(Phenylsulfonyl)-3,4,5′,6′-tetrahydro-2H,4′H-spiro[1-benzofuro[2,3-c]pyridine-1,3′-pyran]hydrochloride]"
15,> 6.30,O=S(=O)(Oc1ccc2c(c1)OC1CNCCC21)c1cccc(C(F)(F)F)c1 (stereo not shown) [Example 675]
16,> 6.30,CC(C)Oc1cc(F)cc(S(=O)(=O)c2ccc3c(c2)OC2CNCCC32)c1 (stereo not shown) [Example 417]
17,> 6.30,O=S(=O)(Nc1ccc2c(c1)C1CCNCC1O2)c1cccc(Cl)c1 (stereo not shown) [Example 826]

# Same assay, conditions: membranes of CHO-K1 cells with recombinant human 5-HT6, 4 nM [3H]LSD; specific data; read-out: h5-HT6 (Ki)
row,pKi,Compound
1,8.82,"CC1(C)NCCc2c1oc1cc(S(=O)(=O)c3cccc(F)c3)ccc21 [Example 1, 7-[(3-Fluorophenyl)sulfonyl]-1,1-dimethyl-1,2,3,4-tetrahydro[1]benzofuro[2,3-c]pyridine]"
